Measurements: patent publication US20260219279A1, “IMPROVED HIGH-THROUGHPUT HYDROGEN-DEUTERIUM EXCHANGE-MASS SPECTROMETRY SYSTEM AND METHOD” (THE BOARD OF REGENTS OF THE UNIVERSITY OF OKLAHOMA, priority 2023, published 2026)

What was measured:
60 kDa chaperonin = target: T1, 60 kDa chaperonin (Escherichia coli, UniProt P0A6F5); assay: Differential PTD-HDX-MS in 60° C.-depleted E. coli cell lysate; format: binding; settings: 60° C.-PTD sample
T1 construct: endogenous in cells; host or cells: E. coli cell lysate
Protocol: (§1) Samples were prepared in triplicate.
(§2) The flowrate was controlled at 150 μL/min.
(§3) The decoy database was automatically generated in MSGF+ software.

[1] = target: T2, alkyl hydroperoxide reductase C (Escherichia coli, UniProt P0AE08); assay: as above; format: binding; settings: 60° C.-PTD sample
T2 construct: endogenous in cells; host or cells: E. coli cell lysate
Protocol: as §1, §2, §3

T2 sequence (P0AE08 2-187): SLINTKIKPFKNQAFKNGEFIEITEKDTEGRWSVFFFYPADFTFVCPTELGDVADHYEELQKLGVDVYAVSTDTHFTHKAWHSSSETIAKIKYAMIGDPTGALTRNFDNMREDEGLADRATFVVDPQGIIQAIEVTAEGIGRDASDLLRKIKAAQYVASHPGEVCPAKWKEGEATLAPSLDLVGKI
T1 sequence (P0A6F5 2-548): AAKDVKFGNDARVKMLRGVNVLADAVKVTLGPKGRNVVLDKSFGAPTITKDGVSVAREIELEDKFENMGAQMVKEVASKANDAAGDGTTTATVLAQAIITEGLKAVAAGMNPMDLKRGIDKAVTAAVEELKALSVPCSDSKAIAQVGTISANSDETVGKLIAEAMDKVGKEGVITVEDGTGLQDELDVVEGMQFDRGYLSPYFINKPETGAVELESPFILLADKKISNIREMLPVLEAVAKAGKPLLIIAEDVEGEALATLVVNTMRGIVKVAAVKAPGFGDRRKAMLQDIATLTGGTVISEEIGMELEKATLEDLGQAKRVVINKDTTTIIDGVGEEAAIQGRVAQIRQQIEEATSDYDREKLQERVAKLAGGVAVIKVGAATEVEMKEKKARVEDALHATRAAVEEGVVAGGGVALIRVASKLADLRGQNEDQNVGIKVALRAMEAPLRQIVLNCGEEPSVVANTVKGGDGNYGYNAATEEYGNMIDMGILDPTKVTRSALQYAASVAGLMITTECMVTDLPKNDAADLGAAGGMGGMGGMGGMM

For `CC(=O)Nc1nnc(S(N)(=O)=O)s1` [AZM, Acetazolamide], the “deuterium uptake difference of characterized peptides following AZM treatment” value (60 kDa chaperonin) was “no significant differences” and the “deuterium uptake difference of characterized peptides following AZM treatment” value [1] was “no significant differences”.
